Reference: ChEMBL document CHEMBL1135541, “Synthesis, biological properties, and molecular modeling investigation of the first potent, selective, and water-soluble human A(3) adenosine receptor antagonist” (J Med Chem, 2002)

What was measured:
Adenosine receptor A3 [1] = molecular target: T1, Adenosine receptor A3 (Homo sapiens, UniProt P0DMS8); experiment: Inhibitory activity against Human Adenosine A3 receptor expressed in CHO cells; type: cell-based
T1 sequence (P0DMS8 whole entry): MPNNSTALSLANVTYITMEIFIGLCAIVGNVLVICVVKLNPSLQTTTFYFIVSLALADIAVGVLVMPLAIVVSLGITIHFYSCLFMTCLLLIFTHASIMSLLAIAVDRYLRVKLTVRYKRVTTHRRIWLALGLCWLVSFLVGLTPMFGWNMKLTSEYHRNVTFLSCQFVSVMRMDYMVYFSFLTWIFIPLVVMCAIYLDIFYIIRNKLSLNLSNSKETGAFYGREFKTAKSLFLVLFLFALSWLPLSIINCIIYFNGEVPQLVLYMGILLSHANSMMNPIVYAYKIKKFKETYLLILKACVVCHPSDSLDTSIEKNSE

[2] = molecular target: Adenosine receptors; A1 & A3 (Homo sapiens) (UniProt P30542+P0DMS8); experiment: Selectivity as ratio of Ki for human adenosine A1 and A3 receptors; type: protein assay
[3] = molecular target: Adenosine receptors; A2a & A3 (Homo sapiens) (UniProt P0DMS8+P29274); experiment: Selectivity as ratio of Ki for human adenosine A2A and A3 receptors; type: protein assay
Adenosine receptors; A2a & A3 (Homo sapiens), sequence (P29274 whole entry, looked up, one chain of several): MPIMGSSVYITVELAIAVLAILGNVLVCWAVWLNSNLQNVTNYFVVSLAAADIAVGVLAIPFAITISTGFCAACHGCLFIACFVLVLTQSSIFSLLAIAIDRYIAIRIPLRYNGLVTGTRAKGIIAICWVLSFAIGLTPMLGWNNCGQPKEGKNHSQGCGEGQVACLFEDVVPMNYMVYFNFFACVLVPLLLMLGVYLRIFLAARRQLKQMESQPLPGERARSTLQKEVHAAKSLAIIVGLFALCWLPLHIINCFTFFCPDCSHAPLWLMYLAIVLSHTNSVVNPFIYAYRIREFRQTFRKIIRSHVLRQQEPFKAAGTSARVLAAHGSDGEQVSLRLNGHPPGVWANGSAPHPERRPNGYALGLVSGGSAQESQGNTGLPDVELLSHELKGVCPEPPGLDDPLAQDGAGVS

[4] = molecular target: Adenosine receptors; A2b & A3 (Homo sapiens) (UniProt P29275+P0DMS8); experiment: Selectivity as ratio of Ki for human A2b and A3 receptors; type: protein assay
[5] = molecular target: T2, Adenosine receptor A3 (Rattus norvegicus) (UniProt P28647); details: RBL-2H3, 1 uM
T2 sequence (whole entry): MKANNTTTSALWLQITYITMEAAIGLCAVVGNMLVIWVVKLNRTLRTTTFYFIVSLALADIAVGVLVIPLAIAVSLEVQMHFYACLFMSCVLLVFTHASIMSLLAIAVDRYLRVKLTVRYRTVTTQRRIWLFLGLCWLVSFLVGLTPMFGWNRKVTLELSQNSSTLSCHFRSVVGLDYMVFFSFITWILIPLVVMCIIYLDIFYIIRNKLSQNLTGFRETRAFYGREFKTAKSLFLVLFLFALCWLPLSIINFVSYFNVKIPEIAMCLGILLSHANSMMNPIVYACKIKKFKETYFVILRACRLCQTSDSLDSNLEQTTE
Description: Inhibitory activity against binding of [125I]I-AB-MECA to Adenosine A3 receptor in membranes of rat basophilic RBL-2H3 cells at 1 uM

[6] = The hydrophobicity was measured in reverse-phase TLC experiments and reported as Rm values; Rm = log(1/Rf - 1)
Adenosine receptor A2a = Adenosine receptor A2a (Rattus norvegicus, UniProt P30543); experiment: Binding affinity against rat adenosine A2A receptor […]; type: cell-based
Adenosine receptor A2a, sequence (P30543 whole entry): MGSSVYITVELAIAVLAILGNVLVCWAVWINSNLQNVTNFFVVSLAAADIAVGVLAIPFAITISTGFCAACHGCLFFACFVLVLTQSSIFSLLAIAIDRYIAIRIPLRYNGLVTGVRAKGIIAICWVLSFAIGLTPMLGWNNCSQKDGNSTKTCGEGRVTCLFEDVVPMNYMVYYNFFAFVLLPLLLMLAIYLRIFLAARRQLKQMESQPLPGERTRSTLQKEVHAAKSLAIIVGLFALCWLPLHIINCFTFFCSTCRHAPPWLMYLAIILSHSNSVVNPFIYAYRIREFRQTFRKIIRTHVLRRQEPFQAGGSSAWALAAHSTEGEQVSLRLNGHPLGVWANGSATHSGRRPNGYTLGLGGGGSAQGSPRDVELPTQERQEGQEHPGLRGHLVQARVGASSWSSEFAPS

Adenosine receptor A1 = molecular target: T3, Adenosine receptor A1 (Rattus norvegicus, UniProt P25099); experiment: Binding affinity against rat adenosine A1 receptor […]; type: cell-based
T3 sequence (P25099 whole entry): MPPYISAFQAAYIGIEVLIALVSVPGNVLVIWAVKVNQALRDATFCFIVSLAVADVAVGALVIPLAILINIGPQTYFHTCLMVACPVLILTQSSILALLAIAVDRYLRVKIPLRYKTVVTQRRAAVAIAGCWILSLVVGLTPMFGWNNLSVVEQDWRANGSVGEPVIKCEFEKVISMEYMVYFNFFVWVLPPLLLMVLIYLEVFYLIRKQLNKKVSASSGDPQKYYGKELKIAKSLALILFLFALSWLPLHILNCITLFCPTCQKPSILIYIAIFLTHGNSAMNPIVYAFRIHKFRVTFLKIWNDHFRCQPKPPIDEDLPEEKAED

[7] = molecular target: T4, Adenosine receptor A3 (Homo sapiens) (UniProt P0DMS8); details: CHO
T4 sequence (whole entry): T1 sequence (P0DMS8 whole entry)
Description: Antagonistic activity against Cl-IB-MECA26-induced inhibition of forskolin-stimulated cAMP in CHO cells expressing human Adenosine A3 receptor

Adenosine receptor A3 [8] = molecular target: T5, Adenosine receptor A3 (Rattus norvegicus, UniProt P28647); experiment: Binding affinity against rat adenosine A3 receptor in RBL-2H3 cells; type: cell-based
T5 sequence (P28647 whole entry): T2 sequence (whole entry)

IC50 (Adenosine receptor A3 [1]) [nM]	Selectivity [2]	Selectivity [3]	Selectivity [4]	inhibition [5] [%]	Rm [6]	Ki (Adenosine receptor A2a) [nM]	Ki (Adenosine receptor A1) [nM]	K B [7] [nM]	Ki (Adenosine receptor A3 [8]) [nM]	SMILES
2.1	3710	2380	1390	–	–	–	–	–	–	Cn1cc2c(nc(NC(=O)Nc3ccccc3)n3nc(-c4ccco4)nc23)n1
–	–	–	–	35	3.06	97.6	226	0.2	> 1000	Cn1cc2c(nc(NC(=O)Nc3ccncc3)n3nc(-c4ccco4)nc23)n1
–	> 400	24	> 400	–	–	–	–	–	–	Cn1cc2c(nc(NC(=O)Nc3ccc(S(=O)(=O)O)cc3)n3nc(-c4ccco4)nc23)n1
